Reference: the CheMixHub ionic liquid set

Assay: xn = mol fraction of the nth substance listed
Settings: 100 kPa

CCCCCCCC[n+]1ccccc1.[Br-] + CC(C)[C@H](N)C(=O)O + O
Settings | electrical conductivity [S/m]
288.15 K, x2 = 0.0008935, x1 = 0.007418 | 1.31
288.15 K, x2 = 0.0008938, x1 = 0.007086 | 1.29
288.15 K, x2 = 0.0008942, x1 = 0.006704 | 1.26
288.15 K, x2 = 0.0008945, x1 = 0.006295 | 1.23
288.15 K, x2 = 0.0008949, x1 = 0.005851 | 1.19
288.15 K, x2 = 0.0008954, x1 = 0.005368 | 1.14
288.15 K, x2 = 0.0008958, x1 = 0.004839 | 1.08
288.15 K, x2 = 0.0008964, x1 = 0.004257 | 1.01
288.15 K, x2 = 0.0008969, x1 = 0.003625 | 0.906
288.15 K, x2 = 0.0008976, x1 = 0.002914 | 0.777
288.15 K, x2 = 0.0008982, x1 = 0.002179 | 0.624
288.15 K, x2 = 0.0008986, x1 = 0.001732 | 0.519
288.15 K, x2 = 0.0008991, x1 = 0.001237 | 0.396
288.15 K, x2 = 0.0008995, x1 = 0.0007528 | 0.27
288.15 K, x2 = 0.001786, x1 = 0.006884 | 1.26
288.15 K, x2 = 0.001787, x1 = 0.006555 | 1.23
288.15 K, x2 = 0.001788, x1 = 0.005847 | 1.16
288.15 K, x2 = 0.001788, x1 = 0.006214 | 1.19
288.15 K, x2 = 0.001789, x1 = 0.005457 | 1.12
288.15 K, x2 = 0.00179, x1 = 0.005019 | 1.08
288.15 K, x2 = 0.001791, x1 = 0.004547 | 1.02
288.15 K, x2 = 0.001792, x1 = 0.00402 | 0.951
288.15 K, x2 = 0.001793, x1 = 0.003446 | 0.852
288.15 K, x2 = 0.001794, x1 = 0.002816 | 0.736
288.15 K, x2 = 0.001795, x1 = 0.002155 | 0.601
288.15 K, x2 = 0.001796, x1 = 0.001258 | 0.39
288.15 K, x2 = 0.001796, x1 = 0.001677 | 0.494
288.15 K, x2 = 0.001797, x1 = 0.000791 | 0.274
293.15 K, x2 = 0.0008935, x1 = 0.007404 | 1.5
293.15 K, x2 = 0.0008938, x1 = 0.007072 | 1.47
293.15 K, x2 = 0.0008942, x1 = 0.00669 | 1.43
293.15 K, x2 = 0.0008945, x1 = 0.006282 | 1.39
293.15 K, x2 = 0.0008949, x1 = 0.005839 | 1.34
293.15 K, x2 = 0.0008954, x1 = 0.005359 | 1.29
293.15 K, x2 = 0.0008958, x1 = 0.00483 | 1.23
293.15 K, x2 = 0.0008964, x1 = 0.004248 | 1.15
293.15 K, x2 = 0.0008969, x1 = 0.003618 | 1.03
293.15 K, x2 = 0.0008976, x1 = 0.002909 | 0.878
293.15 K, x2 = 0.0008982, x1 = 0.002176 | 0.703
293.15 K, x2 = 0.0008986, x1 = 0.00173 | 0.585
293.15 K, x2 = 0.0008991, x1 = 0.001235 | 0.446
293.15 K, x2 = 0.0008995, x1 = 0.0007528 | 0.302
293.15 K, x2 = 0.001786, x1 = 0.006871 | 1.44
293.15 K, x2 = 0.001787, x1 = 0.006543 | 1.4
293.15 K, x2 = 0.001788, x1 = 0.005835 | 1.32
293.15 K, x2 = 0.001788, x1 = 0.006203 | 1.36
293.15 K, x2 = 0.001789, x1 = 0.005446 | 1.28
293.15 K, x2 = 0.00179, x1 = 0.00501 | 1.23
293.15 K, x2 = 0.001791, x1 = 0.004538 | 1.16
293.15 K, x2 = 0.001792, x1 = 0.004013 | 1.08
293.15 K, x2 = 0.001793, x1 = 0.003439 | 0.962
293.15 K, x2 = 0.001794, x1 = 0.002811 | 0.835
293.15 K, x2 = 0.001795, x1 = 0.002152 | 0.681
293.15 K, x2 = 0.001796, x1 = 0.001254 | 0.441
293.15 K, x2 = 0.001796, x1 = 0.001673 | 0.556
293.15 K, x2 = 0.001797, x1 = 0.0007892 | 0.308
298.15 K, x2 = 0.0008935, x1 = 0.007393 | 1.7
298.15 K, x2 = 0.0008938, x1 = 0.007063 | 1.66
298.15 K, x2 = 0.0008942, x1 = 0.006681 | 1.62
298.15 K, x2 = 0.0008945, x1 = 0.006273 | 1.57
298.15 K, x2 = 0.0008949, x1 = 0.005831 | 1.52
298.15 K, x2 = 0.0008954, x1 = 0.005351 | 1.46
298.15 K, x2 = 0.0008959, x1 = 0.004824 | 1.38
298.15 K, x2 = 0.0008964, x1 = 0.004243 | 1.28
298.15 K, x2 = 0.0008969, x1 = 0.003614 | 1.15
298.15 K, x2 = 0.0008976, x1 = 0.002905 | 0.986
298.15 K, x2 = 0.0008982, x1 = 0.002174 | 0.784
298.15 K, x2 = 0.0008986, x1 = 0.001726 | 0.653
298.15 K, x2 = 0.0008991, x1 = 0.001234 | 0.498
298.15 K, x2 = 0.0008995, x1 = 0.000751 | 0.336
